Experimental data reported in article PMC8036666, “Biological and Physico-Chemical Characteristics of Arginine-Rich Peptide Gemini Surfactants with Lysine and Cystine Spacers” (International Journal of Molecular Sciences, 2021).

Assays:
[1] = tested on: Staphylococcus aureus ATCC 25923; parameters: method as in PMID 31581500; conditions: planktonic culture, previous study ref 65; cited from earlier work
[2] = tested on: Pseudomonas aeruginosa ATCC 9027; parameters: method as in PMID 31581500; conditions: biofilm, previous study ref 65; cited from earlier work
[3] = tested on: E. coli ML-35 (ATCC 43827)
Description: (§1) The permeabilization of E. coli ML-35 (ATCC 43827) membranes was studied for selected compounds (A4, B2, C2, B7, and C7) to compare their activity and membrane disruption over time. […] For OM and IM permeabilization, CENTA and ONPG were used, respectively. The permeabilization of OM causes the release of periplasmic β-lactamase, which hydrolyzes CENTA’s β-lactam ring to form a chromophore, 2-nitro-5-thiobenzoate (TNB) anion, while the disruption of IM results in the release of β-galactosidase, which hydrolyzes ONPG into galactose and a chromophore, ortho-nitrophenol (ONP). Both products of enzymatic reaction absorb light at 405 nm.
The MICs were determined by the broth microdilution method according to the Clinical and Laboratory Standard Institute guidelines. For this purpose, initial inoculums of bacteria (5 × 10^5 CFU/mL) in MHB and yeasts (2 × 10^3 CFU/mL) in RPMI-1640 with 2% D-glucose were exposed to the ranging concentration of lipopeptides (0.5–256 μg/mL) and incubated at 37 °C for 18 h and 24 h, respectively. The experiments were conducted on 96-well microtiter polystyrene plates (Kartell, Noviglio, Italy). The growth was assessed visually after incubation, and the MIC was assumed as the lowest peptide concentration at which a noticeable growth of microorganisms was inhibited. All experiments were conducted in triplicate.
Inner and outer membranes permeabilization kinetics were evaluated using Escherichia coli ML-35 (ATCC 43827) and chromogenic substrates—CENTA (BioVision, Milpitas, CA, USA) and o-nitrophenyl-β-d-galactopyranoside (ONPG) (Sigma-Aldrich, Steinheim, Germany), as described previously. To examine OM permeabilization, CENTA was used as a β-lactamase substrate. In effect of OM permeabilization, the enzyme can hydrolyze CENTA’s β-lactam ring. The resulting color change (2-nitro-5-thiobenzoate anion, TNB^-) could be measured spectrophotometrically at 405 nm. The IM permeabilization was monitored with ONPG, which is a chromogenic β-galactosidase substrate. The product of this reaction ([…]) was measured spectrophotometrically at 405 nm (Multiskan GO Microplate Spectrophotometer, Thermo Fisher Scientific, Vantaa, Finland). […] Bacteria were incubated in lysogeny broth medium (LB; Biocorp, Warszawa, Poland) for 24 h at 37 °C. Subsequently, the cells were diluted in a fresh LB medium and incubated at 37 °C up to a mid-log phase (ca. 3 h). The culture was centrifuged (3 min, 1100× g) and rinsed twice with a PBS. The bacteria were resuspended in PBS up to a concentration of 5 × 10^6 CFU/mL. The final concentration of ONPG and CENTA was 1.5 mM and 0.15 mM, respectively. The ONPG/CENTA in PBS (Sigma-Aldrich, Steinheim, Germany) was used as a negative control. […] Readings were taken every 15 min for 3 h at 37 °C [125, 142, 143, 144]. Experiments were performed in triplicate on 96-well flat bottom microtiter polystyrene plates.

[4] = tested on: E. coli ML-35 (ATCC 43827); assay: Outer membrane (OM) permeabilization kinetics, CENTA; assay type: cell-based, Escherichia coli; conditions: over 3 h, 2 µg/mL (MIC)
Description: as §1
Inner and outer membranes permeabilization kinetics were evaluated using Escherichia coli ML-35 (ATCC 43827) and chromogenic substrates—CENTA (BioVision, Milpitas, CA, USA) and o-nitrophenyl-β-d-galactopyranoside (ONPG) (Sigma-Aldrich, Steinheim, Germany), as described previously. To examine OM permeabilization, CENTA was used as a β-lactamase substrate. In effect of OM permeabilization, the enzyme can hydrolyze CENTA’s β-lactam ring.

C14-KKC-NH2 [Compound C14-KKC-NH2]
MIC S. aureus ATCC 25923 [1]: 32 µg/mL

C12-KKC-NH2 [Compound C12-KKC-NH2]
MBEC P. aeruginosa ATCC 9027 [2]: > 512

polymyxin B [reference compound]
MIC E. coli ML-35 (ATCC 43827) [3]: 2 µg/mL
increase of absorbance at 405 nm, OM permeabilization [4]: ca. 0.25 AU
